Results published in the NIST ThermoML archive (doi:10.1016/j.jct.2016.08.008).

Key:
[1] = activity coefficient (dimensionless); of the first substance listed, at infinite dilution; xn = mol fraction of the nth substance listed; details: 101.33 kPa, Liquid, Chromatography, x1 = 0
[2] = Molar enthalpy of transition or fusion; details: Crystal; DSC
[3] = for viscosity / mass density: 101.33 kPa, Liquid; for viscosity: Falling or rolling sphere viscometry; for mass density: Vibrating tube method

CO [methanol] + CCCCCCCCCCCCn1cc[n+](C)c1.O=S(=O)([N-]S(=O)(=O)C(F)(F)F)C(F)(F)F
[1]
Details | activity coefficient
318.15 K | 1.29
328.15 K | 1.22
338.15 K | 1.15
348.15 K | 1.1
358.15 K | 1.05
368.15 K | 1.01

CCC(C)CC [3-methylpentane] + CCCCCCCCCCCCn1cc[n+](C)c1.O=S(=O)([N-]S(=O)(=O)C(F)(F)F)C(F)(F)F
[1]
Details | activity coefficient
318.15 K | 2.77
328.15 K | 2.83
338.15 K | 2.89
348.15 K | 2.94
358.15 K | 2.99
368.15 K | 3.04

C1CCCCCC1 [cycloheptane] + CCCCCCCCCCCCn1cc[n+](C)c1.O=S(=O)([N-]S(=O)(=O)C(F)(F)F)C(F)(F)F
[1]
Details | activity coefficient
318.15 K | 2.43
328.15 K | 2.45
338.15 K | 2.47
348.15 K | 2.49
358.15 K | 2.5
368.15 K | 2.52

CCC(C)O (centres undefined) [butan-2-ol] + CCCCCCCCCCCCn1cc[n+](C)c1.O=S(=O)([N-]S(=O)(=O)C(F)(F)F)C(F)(F)F
[1]
Details | activity coefficient
318.15 K | 1.29
328.15 K | 1.23
338.15 K | 1.18
348.15 K | 1.13
358.15 K | 1.09
368.15 K | 1.05

CC(C)c1ccccc1 [isopropylbenzene] + CCCCCCCCCCCCn1cc[n+](C)c1.O=S(=O)([N-]S(=O)(=O)C(F)(F)F)C(F)(F)F
[1]
Details | activity coefficient
318.15 K | 1.15
328.15 K | 1.2
338.15 K | 1.24
348.15 K | 1.28
358.15 K | 1.32
368.15 K | 1.36

Cc1ccc(C)cc1 [1,4-dimethylbenzene] + CCCCCCCCCCCCn1cc[n+](C)c1.O=S(=O)([N-]S(=O)(=O)C(F)(F)F)C(F)(F)F
[1]
Details | activity coefficient
318.15 K | 0.869
328.15 K | 0.914
338.15 K | 0.958
348.15 K | 1
358.15 K | 1.05
368.15 K | 1.09

Cc1ccccc1 [toluene] + CCCCCCCCCCCCn1cc[n+](C)c1.O=S(=O)([N-]S(=O)(=O)C(F)(F)F)C(F)(F)F
[1]
Details | activity coefficient
318.15 K | 0.699
328.15 K | 0.732
338.15 K | 0.765
348.15 K | 0.8
358.15 K | 0.832
368.15 K | 0.864

CCCCCCCCCCCCn1cc[n+](C)c1.O=S(=O)([N-]S(=O)(=O)C(F)(F)F)C(F)(F)F
Details | Molar enthalpy of transition or fusion [kcal/mol]
[2] | 8.6

[3]
Details | mass density [kg/m3] | viscosity [mPa·s]
298.15 K | 1242.9 | 125
303.15 K | 1238.8 | –
308.15 K | 1234.6 | 76.7
313.15 K | 1230.4 | –
318.15 K | 1226.2 | 52.7
323.15 K | 1222 | –
328.15 K | 1217.8 | 37
333.15 K | 1213.6 | –
338.15 K | 1209.5 | 26.6
343.15 K | 1205.3 | –
348.15 K | 1201.2 | 19.5
353.15 K | 1197.1 | –
358.15 K | 1193 | 14.7
363.15 K | 1188.9 | –
368.15 K | 1184.9 | 11.4

Details | Normal melting temperature [°C]
[3], Crystal, DTA | 19.2

c1ccccc1 [benzene] + CCCCCCCCCCCCn1cc[n+](C)c1.O=S(=O)([N-]S(=O)(=O)C(F)(F)F)C(F)(F)F
[1]
Details | activity coefficient
318.15 K | 0.568
328.15 K | 0.594
338.15 K | 0.619
348.15 K | 0.644
358.15 K | 0.669
368.15 K | 0.694

CCCCCCCCC [nonane] + CCCCCCCCCCCCn1cc[n+](C)c1.O=S(=O)([N-]S(=O)(=O)C(F)(F)F)C(F)(F)F
[1]
Details | activity coefficient
318.15 K | 4.92
328.15 K | 4.97
338.15 K | 5.03
348.15 K | 5.08
358.15 K | 5.13
368.15 K | 5.17

Cc1ccccc1C [1,2-dimethylbenzene] + CCCCCCCCCCCCn1cc[n+](C)c1.O=S(=O)([N-]S(=O)(=O)C(F)(F)F)C(F)(F)F
[1]
Details | activity coefficient
318.15 K | 0.812
328.15 K | 0.851
338.15 K | 0.892
348.15 K | 0.93
358.15 K | 0.968
368.15 K | 1.01

CCC[N+](=O)[O-] [1-nitropropane] + CCCCCCCCCCCCn1cc[n+](C)c1.O=S(=O)([N-]S(=O)(=O)C(F)(F)F)C(F)(F)F
[1]
Details | activity coefficient
318.15 K | 0.567
328.15 K | 0.582
338.15 K | 0.596
348.15 K | 0.609
358.15 K | 0.621
368.15 K | 0.634

C=C(C)c1ccccc1 [(1-methylethenyl)benzene] + CCCCCCCCCCCCn1cc[n+](C)c1.O=S(=O)([N-]S(=O)(=O)C(F)(F)F)C(F)(F)F
[1]
Details | activity coefficient
318.15 K | 0.79
328.15 K | 0.842
338.15 K | 0.896
348.15 K | 0.949
358.15 K | 1
368.15 K | 1.05

C#CCCC [1-pentyne] + CCCCCCCCCCCCn1cc[n+](C)c1.O=S(=O)([N-]S(=O)(=O)C(F)(F)F)C(F)(F)F
[1]
Details | activity coefficient
318.15 K | 1.07
328.15 K | 1.11
338.15 K | 1.16
348.15 K | 1.2
358.15 K | 1.24
368.15 K | 1.28

CC(C)OC(C)C [diisopropyl ether] + CCCCCCCCCCCCn1cc[n+](C)c1.O=S(=O)([N-]S(=O)(=O)C(F)(F)F)C(F)(F)F
[1]
Details | activity coefficient
318.15 K | 1.65
328.15 K | 1.72
338.15 K | 1.79
348.15 K | 1.86
358.15 K | 1.93
368.15 K | 1.99

CC(C)CC(C)(C)C [2,2,4-trimethylpentane] + CCCCCCCCCCCCn1cc[n+](C)c1.O=S(=O)([N-]S(=O)(=O)C(F)(F)F)C(F)(F)F
[1]
Details | activity coefficient
318.15 K | 3.59
328.15 K | 3.66
338.15 K | 3.72
348.15 K | 3.79
358.15 K | 3.85
368.15 K | 3.91

COC(C)(C)C [2-methoxy-2-methylpropane] + CCCCCCCCCCCCn1cc[n+](C)c1.O=S(=O)([N-]S(=O)(=O)C(F)(F)F)C(F)(F)F
[1]
Details | activity coefficient
318.15 K | 0.93
328.15 K | 0.985
338.15 K | 1.04
348.15 K | 1.09
358.15 K | 1.14
368.15 K | 1.2

CCC(C)(C)C [2,2-dimethylbutane] + CCCCCCCCCCCCn1cc[n+](C)c1.O=S(=O)([N-]S(=O)(=O)C(F)(F)F)C(F)(F)F
[1]
Details | activity coefficient
318.15 K | 2.83
328.15 K | 2.89
338.15 K | 2.95
348.15 K | 3
358.15 K | 3.05
368.15 K | 3.1

CCCCCO [pentan-1-ol] + CCCCCCCCCCCCn1cc[n+](C)c1.O=S(=O)([N-]S(=O)(=O)C(F)(F)F)C(F)(F)F
[1]
Details | activity coefficient
318.15 K | 1.52
328.15 K | 1.46
338.15 K | 1.4
348.15 K | 1.35
358.15 K | 1.3
368.15 K | 1.26

CC1CCCCC1 [methylcyclohexane] + CCCCCCCCCCCCn1cc[n+](C)c1.O=S(=O)([N-]S(=O)(=O)C(F)(F)F)C(F)(F)F
[1]
Details | activity coefficient
318.15 K | 2.42
328.15 K | 2.46
338.15 K | 2.49
348.15 K | 2.52
358.15 K | 2.55
368.15 K | 2.58
